Experimental data reported in US20150202179A1, “FATTY ACID DERIVATIVES FOR USE IN A METHOD OF TREATING DEPRESSION AND ASSOCIATED CONDITIONS” (YISSUM RESEARCH DEVELOPMENT COMPANY OF THE HEBREW …, priority 2012, published 2015).
“Also recorded” adds a separate entry of the source.

Tests used:
[1] = test system: Norepinephrine (NE) levels; assay: Norepinephrine (NE) determination in brain tissue by HPLC with electrochemical detection; type: in vivo, mice; conditions: for NE: ng/g wet tissue +/− SEM; for norepinephrine levels in the hippocampus vs. control / norepinephrine levels in the hypothalamus vs. control: result in words
Protocol: (§1) Solution of DHBA as internal standard in the concentration of: 1 μg/ml in 0.1M perchloric acid, were prepared. Standard solutions of NE and 5HT in the concentration of 1-0.1 μg/ml in 0.1M perchloric acid were prepared.
(§2) Tissues (hypothalamus and hippocampus) obtained from 6-8 mice were dissected on ice surface and kept at −80 C. Hypothalamus (HT) or hippocampus (HC) from 1 mice were weighted (weight of HT −10-20 mg, HC 30-40 mg) and placed in eppendorf micro-centrifuge tube, 1.5 ml. To each tube was added 120-160 μl of ice cold solution of Perchloric acid and DHBA, homogenized in ice bath on Sonics vibra cell, 3×20 sec., 0.4 watts and centrifuged at 14,000×g at 4° C. 10 min. Supernatant gained was stored in ice before analysis.
(§3) The HPLC system consisted of Jasco PU-980 pump, Jasco AS-950-10 autosampler cooled at 4° C., H3 ODS-125A 3 μm 125 mm×4.6 mm i.d. analytical column (Hichrom, UK) were used. Electrochemical detector Coulochem ESA 5100A with analytical cell model 5011 was used for control detector voltage and record the current. Working electrode was set at potential +350 mV. Control and data collection/processing were handled through Borwin chromatography software.
(§4) The mobile phase composition: A stock buffer was prepared as follows: 20 mM sodium dihydrogenorthophosphate, EDTA 3 mg/l, 1-heptanesulfonic acid 1 g/l were dissolved in 1 liter deionized distilled water and buffered to pH 3.7 using concentrated phosphoric acid. To prepare the mobile phase buffer was mixed with acetonitrile (Baker HPLC analyzed) in the ratio 85:15 (v/v), filtered through a 0.2 μm membrane filter and degassed under vacuum after mixing. Mobile phase flow rate 1 ml/min. Injection volume 20 μl, retention time for DHBA 4.2 min., norepinephrine—3.1 min., 5HT 8.6 min. For calibration curve 1 ug/ml solution of DHBA together with 1.0-0.1 μg/ml solutions of 5HT and NE were used. The ratio between 5HT or NE and DHBA used to calculate the level of 5HT and NE in the sample. Date are given in ng/g wet tissue +/−SEM.

serotonin (5HT) levels = assay: Serotonin (5HT) determination in brain tissue by HPLC with electrochemical detection; type: in vivo, mice; conditions: for 5HT: ng/g wet tissue +/− SEM; for 5HT levels in the hippocampus vs. control / 5HT levels in the hypothalamus vs. control: result in words
Protocol: as §1, §2, §3, §4

Molecule	NE ([1]; Hippocampus)	norepinephrine levels in the hippocampus vs. control [1]	5HT (serotonin (5HT) levels; Hippocampus)	5HT levels in the hippocampus vs. control (serotonin (5HT) levels)	5HT (serotonin (5HT) levels; Hypothalamus)	5HT levels in the hypothalamus vs. control (serotonin (5HT) levels)	NE ([1]; Hypothalamus)	norepinephrine levels in the hippocampus vs. control ([1]; listed as compound 14)	norepinephrine levels in the hypothalamus vs. control [1]	norepinephrine levels in the hypothalamus vs. control ([1]; listed as compound 14)	5HT levels in the hippocampus vs. control (serotonin (5HT) levels; listed as compound 14)	5HT levels in the hypothalamus vs. control (serotonin (5HT) levels; listed as compound 14)
CCCCC/C=C\C/C=C\CCCCCCCC(=O)N[C@H](CO)CC(C)C [Compound 4, Linoleoyl-L-Leucinol amide]	302.5 ± 22.4 ng/g	significantly enhanced; also recorded: increase significantly	380.4 ± 12.8 ng/g	significantly enhanced; also recorded: increased significantly								
CCCCCCCC/C=C\CCCCCCCC(=O)N[C@H](CO)CC(C)C [Compound 5, Oleoyl-L-Leucinol amide]			419.8 ± 67.4 ng/g	increased significantly	767.2 ± 51.9 ng/g							
CCCCCCCC/C=C/CCCCCCCC(=O)N[C@H](CO)C(C)C [Compound 7, Elaidoyl-L-Valinol amide]			335.4 ± 45.4 ng/g	increased significantly	856.5 ± 115.2 ng/g	increased significantly						
CCCCC/C=C\C/C=C\CCCCCCCC(=O)N[C@H](CO)C(C)C [Compound 10, Linoleoyl-L-Valinol amide]	407.9 ± 48.9 ng/g	significantly enhanced; also recorded: increase significantly	299.2 ± 22.8 ng/g	significantly enhanced; also recorded: increased significantly								
CCCCCCCC/C=C\CCCCCCCC(=O)N[C@@H](CO)C(C)C [Compound 11, Oleoyl-D-Valinol]					777.8 ± 79.1 ng/g	increased significantly						
CCCCCCCC/C=C\CCCCCCCCOC(=O)N[C@@H](CO)C(C)C [Compound 13, Oleyloxycarbonyl-D-Valinol amide]	396.7 ± 44.7 ng/g	significantly enhanced; also recorded: increase significantly	300.1 ± 41.5 ng/g	significantly enhanced; also recorded: increased significantly	831.3 ± 29.1 ng/g	increased significantly	1002 ± 62.7 ng/g					
CCCCCCCC/C=C\CCCCCCCC(=O)N[C@H](CO)Cc1ccccc1 [Compound 26, Oleoyl-L-phenyl alaninol]		increase significantly										
Oleyl-amine-carbonyl-D-valinol [Compound 14]	313.9 ± 48 ng/g	increase significantly	344 ± 32.4 ng/g	increased significantly	876.4 ± 126.8 ng/g	increased significantly	1139.4 ± 43.3 ng/g	significantly enhanced	increased significantly	significantly enhanced	significantly enhanced	significantly enhanced
Oleylamino-D-2-hydroxyvaline amide [Compound 19]	296.4 ± 24.8 ng/g	significantly enhanced; also recorded: increase significantly	296.3 ± 33.2 ng/g	significantly enhanced; also recorded: increased significantly								
